The values that follow come from patent US4835139A, “Process for increasing the antagonistic effect of peptidic compounds on hormone-dependent diseases” (Debiopharm S.A., priority 1983, dated 1989).

For assay [1], the system named is prostatic tumor R-3327-H according to Dunning. As to the kind of experiment: Antagonistic effect on Dunning R-3327-H prostate carcinoma in rats, 30 days. It counts as in vivo. Particulars: encapsulated 25 micrograms daily i.m. From the text:
(DUNNING R-3327-H PROSTRATE CARCINOMA).

Assay [2] can be described thus: Body and organ weights of the rats bearing the Dunning R-3327-H tumor. Particulars: 30 days, encapsulated 25 micrograms daily i.m.
Method: In vivo tests were carried out on groups of 7 to 10 animals during a period of 30 days.
The administration of the non-encapsulated Compound A adequately dissolved in a biocompatible solvent was achieved by the subcutaneous injection of two doses every day, each dose containing 25 micrograms of compound A (Table 2) or 12.5 micrograms of compound A (Table 3).
The administration of the encapsulated compound A was achieved by the daily intra-muscular injection of doses of the preparation suspended in a biocompatible solvent, each such dose containing 25 micrograms of compound A.
The mark [3] stands for this setting: Table 2, non-encapsulated 2 x 25 micrograms/day s.c.
Setting [4] is: Table 3, non-encapsulated 2 x 12.5 micrograms/day s.c.

With `CC(C)C[C@H](NC(=O)[C@@H](Cc1c[nH]c2ccccc12)NC(=O)[C@H](Cc1ccc(O)cc1)NC(=O)[C@H](CO)NC(=O)[C@H](Cc1c[nH]c2ccccc12)NC(=O)[C@H](Cc1c[nH]cn1)NC(=O)[C@@H]1CCC(=O)N1)C(=O)N[C@@H](CCCNC(=N)N)C(=O)N1CCC[C@H]1C(=O)NCC(N)=O` [Compound A non-encapsulated, (pyro) Glu-His-Trp-Ser-Tyr-D-Trp-Leu-Arg-Pro-Gly-NH2], in assay [1] (setting [3]), the “Increase of tumor volume” value is listed as 85 + 19% and the “Tumor (Dunning R3327-H Prostate Carcinoma)” value is 546 + 0.14 mg. In assay [1] (setting [4]), the “Increase of tumor volume” value is on record as 110 + 28% and the “Tumor (Dunning R3327-H Prostate Carcinoma)” value is reported as 260 + 68 mg. Moreover, in assay [2] (setting [3]), the Testicles is listed as 1.36 ± 0.14 g and the “Ventral portion of prostate” value is on record as 54 + 5 mg. For the same compound, in assay [2] (setting [4]), the Testicles was determined as 1.83 ± 0.07 g and the “Ventral portion of prostate” value is 88 + 7 mg.
